Assay: xn = mol fraction of the nth substance listed
Conditions: for surface tension liquid-gas: Drop volume; for viscosity / mass density: 100 kPa, Liquid; for viscosity: Concentric cylinders viscometry; for mass density: Vibrating tube method

CC1CCCCC1 [methylcyclohexane] + CC(C)CC(C)(C)C
Conditions	mass density [kg/m3]	surface tension liquid-gas [mN/m]	viscosity [mPa·s]
293.15 K, x1 = 0.0999	–	19.34	–
293.15 K, x1 = 0.1012	698.32	–	0.532
293.15 K, x1 = 0.1999	–	19.77	–
293.15 K, x1 = 0.2003	704.87	–	0.546
293.15 K, x1 = 0.2997	–	20.13	–
293.15 K, x1 = 0.3001	711.73	–	0.562
293.15 K, x1 = 0.4	–	20.54	–
293.15 K, x1 = 0.4019	719.01	–	0.58
293.15 K, x1 = 0.5	–	20.99	–
293.15 K, x1 = 0.5008	726.4	–	0.599
293.15 K, x1 = 0.6	734.15	21.52	0.62
293.15 K, x1 = 0.6998	742.32	–	0.644
293.15 K, x1 = 0.7001	–	22.1	–
293.15 K, x1 = 0.7999	–	22.64	–
293.15 K, x1 = 0.8	750.91	–	0.671
293.15 K, x1 = 0.9	759.88	23.29	0.701
293.15 K, x1 = 1	769.35	23.87	0.735
298.15 K, x1 = 0.0999	–	18.75	–
298.15 K, x1 = 0.1012	694.22	–	0.506
298.15 K, x1 = 0.1999	–	19.1	–
298.15 K, x1 = 0.2003	700.73	–	0.519
298.15 K, x1 = 0.2997	–	19.44	–
298.15 K, x1 = 0.3001	707.58	–	0.533
298.15 K, x1 = 0.4	–	19.84	–
298.15 K, x1 = 0.4019	714.85	–	0.549
298.15 K, x1 = 0.5	–	20.2	–
298.15 K, x1 = 0.5008	722.23	–	0.566
298.15 K, x1 = 0.6	729.96	20.69	0.585
298.15 K, x1 = 0.6998	738.11	–	0.606
298.15 K, x1 = 0.7001	–	21.26	–
298.15 K, x1 = 0.7999	–	21.81	–
298.15 K, x1 = 0.8	746.67	–	0.631
298.15 K, x1 = 0.9	755.61	22.41	0.66
298.15 K, x1 = 1	765.05	23.02	0.692
303.15 K, x1 = 0.0999	–	18.32	–
303.15 K, x1 = 0.1012	690.06	–	0.482
303.15 K, x1 = 0.1999	–	18.62	–
303.15 K, x1 = 0.2003	696.57	–	0.494
303.15 K, x1 = 0.2997	–	18.99	–
303.15 K, x1 = 0.3001	703.4	–	0.507
303.15 K, x1 = 0.4	–	19.38	–
303.15 K, x1 = 0.4019	710.66	–	0.521
303.15 K, x1 = 0.5	–	19.73	–
303.15 K, x1 = 0.5008	718.01	–	0.537
303.15 K, x1 = 0.6	725.72	20.21	0.554
303.15 K, x1 = 0.6998	733.85	–	0.573
303.15 K, x1 = 0.7001	–	20.72	–
303.15 K, x1 = 0.7999	–	21.32	–
303.15 K, x1 = 0.8	742.38	–	0.595
303.15 K, x1 = 0.9	751.3	21.92	0.621
303.15 K, x1 = 1	760.71	22.55	0.651
308.15 K, x1 = 0.0999	–	17.84	–
308.15 K, x1 = 0.1012	685.89	–	0.46
308.15 K, x1 = 0.1999	–	18.12	–
308.15 K, x1 = 0.2003	692.38	–	0.471
308.15 K, x1 = 0.2997	–	18.43	–
308.15 K, x1 = 0.3001	699.2	–	0.483
308.15 K, x1 = 0.4	–	18.8	–
308.15 K, x1 = 0.4019	706.44	–	0.496
308.15 K, x1 = 0.5	–	19.19	–
308.15 K, x1 = 0.5008	713.78	–	0.51
308.15 K, x1 = 0.6	721.47	19.64	0.525
308.15 K, x1 = 0.6998	729.57	–	0.543
308.15 K, x1 = 0.7001	–	20.23	–
308.15 K, x1 = 0.7999	–	20.75	–
308.15 K, x1 = 0.8	738.08	–	0.564
308.15 K, x1 = 0.9	746.98	21.44	0.587
308.15 K, x1 = 1	756.37	22.12	0.615
313.15 K, x1 = 0.1012	681.69	–	0.44
313.15 K, x1 = 0.2003	688.17	–	0.45
313.15 K, x1 = 0.3001	694.97	–	0.461
313.15 K, x1 = 0.4019	702.2	–	0.473
313.15 K, x1 = 0.5008	709.52	–	0.486
313.15 K, x1 = 0.6	717.19	–	0.5
313.15 K, x1 = 0.6998	725.27	–	0.516
313.15 K, x1 = 0.8	733.75	–	0.535
313.15 K, x1 = 0.9	742.63	–	0.556
313.15 K, x1 = 1	752	–	0.58
318.15 K, x1 = 0.1012	677.34	–	0.422
318.15 K, x1 = 0.2003	683.85	–	0.432
318.15 K, x1 = 0.3001	690.64	–	0.443
318.15 K, x1 = 0.4019	697.75	–	0.453
318.15 K, x1 = 0.5008	705.13	–	0.465
318.15 K, x1 = 0.6	712.85	–	0.478
318.15 K, x1 = 0.6998	720.93	–	0.493
318.15 K, x1 = 0.8	729.36	–	0.509
318.15 K, x1 = 0.9	738.24	–	0.528
318.15 K, x1 = 1	747.58	–	0.549
323.15 K, x1 = 0.1012	673.08	–	0.406
323.15 K, x1 = 0.2003	679.58	–	0.415
323.15 K, x1 = 0.3001	686.35	–	0.426
323.15 K, x1 = 0.4019	693.44	–	0.435
323.15 K, x1 = 0.5008	700.81	–	0.446
323.15 K, x1 = 0.6	708.52	–	0.458
323.15 K, x1 = 0.6998	716.59	–	0.471
323.15 K, x1 = 0.8	725.08	–	0.486
323.15 K, x1 = 0.9	733.86	–	0.503
323.15 K, x1 = 1	743.17	–	0.522
333.15 K, x1 = 0.1012	664.46	–	0.378
333.15 K, x1 = 0.2003	670.92	–	0.386
333.15 K, x1 = 0.3001	677.66	–	0.395
333.15 K, x1 = 0.4019	684.72	–	0.402
333.15 K, x1 = 0.5008	692.07	–	0.411
333.15 K, x1 = 0.6	699.74	–	0.421
333.15 K, x1 = 0.6998	707.79	–	0.433
333.15 K, x1 = 0.8	716.25	–	0.445
333.15 K, x1 = 0.9	725.03	–	0.46
333.15 K, x1 = 1	734.29	–	0.476
343.15 K, x1 = 0.1012	655.69	–	0.355
343.15 K, x1 = 0.2003	662.12	–	0.361
343.15 K, x1 = 0.3001	668.84	–	0.368
343.15 K, x1 = 0.4019	675.87	–	0.375
343.15 K, x1 = 0.5008	683.23	–	0.383
343.15 K, x1 = 0.6	690.9	–	0.391
343.15 K, x1 = 0.6998	698.9	–	0.401
343.15 K, x1 = 0.8	707.33	–	0.411
343.15 K, x1 = 0.9	716.08	–	0.424
343.15 K, x1 = 1	725.31	–	0.439

Reference: the NIST ThermoML archive (doi:10.1021/acs.jced.5b00105)
